Results taken from patent publication US9452220B2, “Coupling compounds of NSAID anti-inflammatory and analgesic drugs and EGFR kinase inhibitors, synthesis methods and applications thereof” (Guangzhou Institutes of Biomedicine and Health, Chinese …, priority 2014, dated 2016).

Columns and labels:
[1] = system: HCC827 human non-small cell lung cancer cells; assay: MTT cell activity assay, HCC827 cells; assay type: cell-based; settings: 72 hrs with compound, absorption at 570 nm or 490 nm
Experimental: (§1) H1975/HCC827: human non-small cell lung cancer cells, PBS, MTT, DMEM culture medium, pancreatin, a multichannel pipette, a vortex mixer, a microplate reader, a biosafety cabinet, a 5% CO2 cell culture incubator, a cell counter, a microscope, a thermostatic water bath, and a 96-pore plate.
(§2) 1. H1975/HCC827 cells was cleaned with PBS, digested with pancreatin, centrifuged at room temperature for 5 min at 1000 rpm, re-suspended with an appropriate amount of culture medium, and counted by a cell counting plate. The cells were inoculated to the 96-pore plate by the multichannel pipette at 1000-2000 cells/pore/100 μl, with 6 complex pores for each concentration and totally 6 concentration gradients. The basis of the number of cells: upon final test, OD570 was between 0.2-0.8 (Lambert-Beer's Law).
(§3) 2. The compounds were prepared into […] of mother liquor by using DMSO. 10 μl of mother liquor was added into 90 μl of DMSO, and the mixture was uniformly mixed by the vortex mixer and diluted in turn for 5 times to obtain DMSO stock solution. The stock solution was stored at 4° C. for standby. The stock solution was uniformly mixed again before use and then added into a complete culture medium in 1:500 to serve as working solution, and then the mixture was mixed uniformly by the vortex mixer. The working solution needs to be immediately used after prepared well to avoid precipitation after long-term storage.
(§4) 3. The 96-pore plate was cultured in the cell incubator for 24 hrs, then added with 100 μl of the working solution prepared from the compounds, and continued to be cultured together for 72 hrs.
(§5) 4. The upper-layer culture medium was removed carefully, then 100 μl of culture medium containing MTT (0.5 mg/ml) was added again, and the culture medium was placed in the incubator for 4 hrs. The culture medium was removed completely, then 100 μl of DMSO was added, and the mixture was shocked uniformly. Preparation of MTT: 1.25 g of MTT was added into 250 ml of PBS, and then the mixture was mixed uniformly and stored away from light at 4° C.
(§6) 5. The light absorption value at 570 nm or 490 nm was detected by the microplate reader. EC50 was calculated and an added value curve was drawn by Graphpad.

[2] = system: H1975 human non-small cell lung cancer cells; assay: MTT cell activity assay, H1975 cells; assay type: cell-based; settings: NCI-H1975, 72 hrs with compound, absorption at 570 nm or 490 nm
Experimental: as §1, §2, §3, §4, §5, §6

Compound: C#Cc1cccc(Nc2ncnc3cc(OCCOC(=O)C(C)c4ccc5cc(OC)ccc5c4)c(OCCOC)cc23)c1 (stereo not shown) [Embodiment 13, 2-(4-(3-ethynylaniline)-6-(2-methoxyethoxy)quinazoline-7-oxy)ethyl-2-(6-methoxylnaphthyl-2-ene)propanoic acid]
- EC50 [1]: 0.09 µM
- EC50 [2]: 27.2 µM

Compound: C#Cc1cccc(Nc2ncnc3cc(OCCOC)c(OCCOC(=O)C4=Cc5cc(Cl)c(C(C)(C)C)cc5OC4C(F)(F)F)cc23)c1 (stereo not shown) [Embodiment 4]
- EC50 [1]: 0.61 µM
- EC50 [2]: 32.9 µM

Compound: C#Cc1cccc(Nc2ncnc3cc(OCCOC(=O)c4ccccc4OC(C)=O)c(OCCOC)cc23)c1 [Embodiment 11, 2-(4-(3-ethynylaniline)-6-(2-methoxyethoxy)quinazoline-7-oxy)ethyl-2-acetoxyl benzoic acid]
- EC50 [1]: 0.13 µM
- EC50 [2]: 13.8 µM

Compound: C#Cc1cccc(Nc2ncnc3cc(OCCOC)c(OCCOC(=O)c4ccccc4OC(C)=O)cc23)c1 [Embodiment 3, 2-(4-(3-ethynylaniline)-7-(2-methoxyethoxy)quinazoline-6-oxy)ethyl-2-acetoxybenzoic acid]
- EC50 [1]: 0.16 µM
- EC50 [2]: 12.2 µM

Compound: C#Cc1cccc(Nc2ncnc3cc(OCCOC(=O)C(C)c4ccc(C(=O)c5ccccc5)cc4)c(OCCOC(=O)C(C)c4ccc(C(=O)c5ccccc5)cc4)cc23)c1 (stereo not shown) [Embodiment 17, 2,2′-(4-(3-ethynylaniline)quinazoline-6,7-diene)di(oxy)bis(ethyl-2,1-diene)-bis(2-(4-benzoylphenyl)propanoic acid)]
- EC50 [1]: 1.5 µM

Compound: C#Cc1cccc(Nc2ncnc3cc(OCCOC(=O)Cc4c(C)n(C(=O)c5ccc(Cl)cc5)c5ccc(OC)cc45)c(OCCOC)cc23)c1 [Embodiment 14, 3-(4-(3-ethynylaniline)-6-(2-methoxyethoxy)quinazoline-7-oxy)ethyl-2-(1-(4-chlorobenzoyl)-5-methoxy-2-methyl-1H-indol-3-ene)acetic acid]
- EC50 [1]: 0.63 µM
- EC50 [2]: 95.8 µM

Compound: C#Cc1cccc(Nc2ncnc3cc(OCCOC(=O)C(C)c4ccc(CC(C)C)cc4)c(OCCOC(=O)C(C)c4ccc(CC(C)C)cc4)cc23)c1 (stereo not shown) [Embodiment 18, 2,2′-(4-(3-ethynylaniline)quinazoline-6,7-diene)di(oxy)bis(ethyl-2,1-diene)-bis(2-(4-isobutylphenyl)propanoic acid)]
- EC50 [2]: 805 µM

Compound: C#Cc1cccc(Nc2ncnc3cc(OCCOC(=O)Cc4c(C)n(C(=O)c5ccc(Cl)cc5)c5ccc(OC)cc45)c(OCCOC(=O)Cc4c(C)n(C(=O)c5ccc(Cl)cc5)c5ccc(OC)cc45)cc23)c1 [Embodiment 22, 2,2′-(4-(3-ethynylaniline)quinazoline-6,7-diene)di(oxy)bis(ethyl-2,1-diene)-bis(2-(1-(4-chlorobenzoyl)-5-methoxy-2-methyl-1H-indol-3-ene)acetic acid)]
- EC50 [1]: 3.62 µM
- EC50 [2]: 55.3 µM

Compound: C#Cc1cccc(Nc2ncnc3cc(OCCOC(=O)c4ccccc4OC(C)=O)c(OCCOC(=O)c4ccccc4OC(C)=O)cc23)c1 [Embodiment 19, 2,2′-(4-(3-ethynylaniline)quinazoline-6,7-diene)di(oxy)bis(ethyl-2,1-diene)-bis(2-acetoxylbenzoic acid)]
- EC50 [1]: 0.2 µM
- EC50 [2]: 41.7 µM

Compound: C#Cc1cccc(Nc2ncnc3cc(OCCOC(=O)C(C)c4ccc(CC(C)C)cc4)c(OCCOC)cc23)c1 (stereo not shown) [Embodiment 10, 2-(4-(3-ethynylaniline)-6-(2-methoxyethoxy)quinazoline-7-oxy)ethyl-2-(4-isobutylphenyl)propanoic acid]
- EC50 [1]: 0.28 µM
- EC50 [2]: 8.65 µM

Compound: C#Cc1cccc(Nc2ncnc3cc(OCCOC(=O)C4=Cc5cc(Cl)c(C(C)(C)C)cc5OC4C(F)(F)F)c(OCCOC(=O)C4=Cc5cc(Cl)c(C(C)(C)C)cc5OC4C(F)(F)F)cc23)c1 (stereo not shown) [Embodiment 21, 2,2′-(4-(3-ethynylaniline)quinazoline-6,7-diene)di(oxy)bis(ethyl-2,1-diene)-bis(7-7-tert-butyl-6-chloro-2-(trifluoromethyl)-2H-pyran-3-carboxylic acid)]
- EC50 [1]: 1.05 µM
- EC50 [2]: 75.6 µM

Compound: C#Cc1cccc(Nc2ncnc3cc(OCCOC(=O)c4ccc(C(=O)Nc5ccc6c(c5)C(C)(C)CCC6(C)C)cc4)c(OCCOC(=O)c4ccc(C(=O)Nc5ccc6c(c5)C(C)(C)CCC6(C)C)cc4)cc23)c1 [Embodiment 24, 2,2′-(4-(3-ethynylaniline)quinazoline-6,7-diene)di(oxy)bis(ethyl-2,1-diene)-bis(4-(5,5,8,8-tetramethyl-5,6,7,8-tetralin-2-alkenylcarbamyl)benzoic acid)]
- EC50 [1]: 1.14 µM
- EC50 [2]: 52.9 µM
